Data on 27 compounds can be found in US20230167073A1 (Teijin Pharma Limited, priority 2020, published 2023).

The target in this assay is T1, Human TRPC6 (Homo sapiens, UniProt Q9Y210).
T1 construct: expressed in transfected cells
T1 sequence (Q9Y210 1-931): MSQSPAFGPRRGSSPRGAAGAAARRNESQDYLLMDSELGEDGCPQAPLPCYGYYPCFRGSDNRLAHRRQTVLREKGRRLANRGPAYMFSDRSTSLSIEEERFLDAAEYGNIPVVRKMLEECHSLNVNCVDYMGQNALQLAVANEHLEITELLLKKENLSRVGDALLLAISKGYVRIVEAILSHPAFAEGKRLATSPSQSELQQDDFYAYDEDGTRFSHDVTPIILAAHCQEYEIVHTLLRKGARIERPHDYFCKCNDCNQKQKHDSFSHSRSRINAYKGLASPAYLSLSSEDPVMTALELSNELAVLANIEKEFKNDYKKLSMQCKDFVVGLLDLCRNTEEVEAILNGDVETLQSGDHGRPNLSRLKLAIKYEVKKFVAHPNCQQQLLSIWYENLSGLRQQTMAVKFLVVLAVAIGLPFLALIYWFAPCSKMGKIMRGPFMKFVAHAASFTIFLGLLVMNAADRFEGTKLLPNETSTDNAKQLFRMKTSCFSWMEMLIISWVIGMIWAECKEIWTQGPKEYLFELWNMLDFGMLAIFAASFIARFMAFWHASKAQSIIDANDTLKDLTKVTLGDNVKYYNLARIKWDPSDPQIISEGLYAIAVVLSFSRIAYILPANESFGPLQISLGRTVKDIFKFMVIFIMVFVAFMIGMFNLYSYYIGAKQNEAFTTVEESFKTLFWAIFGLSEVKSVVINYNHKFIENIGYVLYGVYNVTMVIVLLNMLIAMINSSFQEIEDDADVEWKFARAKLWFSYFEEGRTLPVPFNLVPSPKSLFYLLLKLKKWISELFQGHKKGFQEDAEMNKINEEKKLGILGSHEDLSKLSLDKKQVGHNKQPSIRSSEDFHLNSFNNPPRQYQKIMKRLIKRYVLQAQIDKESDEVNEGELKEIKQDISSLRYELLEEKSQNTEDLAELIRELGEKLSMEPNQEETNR
Description: Evaluation of TRPC6 channel inhibitory activity (1), FLIPR Calcium 5 Assay Kit, OAG stimulation (Compound Nos. 1-1293). The note with it: Human TRPC6 stably-expressing cells, OAG 30 μM, FLIPR Calcium 5 Assay Kit; read-out: Inhibitory activity (pIC50 class) (converted). The assay is classed as cell-based. The protocol:
Evaluation of TRPC6 Channel Inhibitory Activity (1) (Compound Nos. 1-1293)
In order to investigate TRPC6 channel inhibitory activity of the compounds, evaluation was conducted using FLIPR® Calcium 5 Assay Kit (Molecular Devices) in accordance with the following procedure. Human TRPC6 stably-expressing cells were seeded in a 384-well black clear bottom plate at a density of 5×10^3/well and cultured in an incubator at 37° C. 5% CO2 for 24 hours. Thereafter, 25 μL of a Non Wash Dye Solution, prepared using Component A, 20 mM HEPES-HBSS and 250 mM probenecid, all of which are included in the kit, was added to each well, and the plate was incubated for 30 minutes. A volume of 12.5 μL of a compound solution was added into each well while the fluorescence was measured with FLIPR tetra. After 20 minutes, 12.5 μL of a 1-oleoyl-2-acetyl glycerol (OAG) solution was added at a final concentration of 30 μM. The difference between the minimum fluorescence intensity before the addition of the compound and the maximum fluorescence intensity after the addition of OAG was defined as a signal. An inhibition rate was calculated, assuming the average signal of wells without the compound as the inhibition rate of 0% and the average signal of wells without the compound and OAG as the inhibition rate of 100%. The calculated inhibition rate was analyzed by a four-parameter logistic regression to quantify the inhibition rate in the logarithm of the inverse of the effective concentration which gives a 50% inhibition rate (pIC50). The intensity was expressed by the following symbols (+, ++, +++).
`Cn1nc(C2CCC2)cc1Oc1cc(C#N)ccc1-c1ncc(C(O)CNCC#N)cn1` (stereo not drawn) [Compound 281, 4-[5-[2-(cyanomethylamino)-1-hydroxyethyl]pyrimidin-2-yl]-3-(5-cyclobutyl-2-methylpyrazol-3-yl)oxybenzonitrile]: the IC50 is over 1000 nM.

As to `Cc1nc(Oc2cc(C#N)ccc2-c2ccc(CCN)cc2)cc(-c2cccs2)n1` [Compound 33, 4-[4-(2-aminoethyl)phenyl]-3-(2-methyl-6-thiophen-2-ylpyrimidin-4-yl)oxybenzonitrile], the IC50 was under 10 nM.

As to `Cc1nc(Oc2cc(C#N)ccc2-c2ccc(C(CN)Oc3ccccc3)cc2)cc(N2CCOCC2)n1` (stereo not drawn) [Compound 13, 4-[4-(2-Amino-1-phenoxyethyl)phenyl]-3-(2-methyl-6-morpholin-4-ylpyrimidin-4-yl)oxybenzonitrile], the IC50 is 10 to 1000 nM.

`Cc1nc(Oc2cc(C#N)ccc2-c2ccc(CCN)nc2)cc(-c2ccc(F)cc2)n1` [Compound 190, 4-[6-(2-aminoethyl)pyridin-3-yl]-3-[6-(4-fluorophenyl)-2-methylpyrimidin-4-yl]oxybenzonitrile]: the IC50 was 10 to 1000 nM.

As to `Cc1nc(OCC(C)C)cc(Oc2cc(C#N)ccc2-n2cc([C@@H](O)CN)cn2)n1` [Compound 267, 4-[4-[(1R)-2-amino-1-hydroxyethyl]pyrazol-1-yl]-3-[2-methyl-6-(2-methylpropoxy)pyrimidin-4-yl]oxybenzonitrile], the IC50 was under 10 nM.

`Cn1nc(-c2cccc(F)c2)cc1Oc1cc(C#N)ccc1-c1ccc(C(O)CN)cc1` (stereo not drawn) [Compound 198, 4-[4-(2-amino-1-hydroxyethyl)phenyl]-3-[5-(3-fluorophenyl)-2-methylpyrazol-3-yl]oxybenzonitrile]: the IC50 was under 10 nM.

As to `Cn1nc(N2CCCC2)cc1Oc1cc(F)ccc1-c1ncc(CCN)cn1` [compound 979, 2-[2-[4-fluoro-2-(2-methyl-5-pyrrolidin-1-ylpyrazol-3-yl)oxyphenyl]pyrimidin-5-yl]ethanamine], the IC50 is under 10 nM.

Turning to `N#Cc1ccc(-c2ccc(CCN)cc2)c(Oc2sc(-c3ccccc3)nc2C#N)c1` [compound 807, 5-[2-[4-(2-aminoethyl)phenyl]-5-cyanophenoxy]-2-phenyl-1,3-thiazole-4-carbonitrile], the IC50 is 10 to 1000 nM.

Take `CC(C)Cn1cc(C(=O)c2cc(C#N)ccc2-c2ncc(CCN)cn2)cn1` [compound 1060, 4-[5-(2-aminoethyl)pyrimidin-2-yl]-3-[1-(2-methylpropyl)pyrazole-4-carbonyl]benzonitrile]: the IC50 is under 10 nM.

Consider `Cc1nc(Oc2cc(C#N)ccc2-c2ccc(C(CN)c3ccsc3)cc2)cc(N2CCOCC2)n1` (stereo not drawn) [Compound 72, 4-[4-(2-amino-1-thiophen-3-ylethyl)phenyl]-3-(2-methyl-6-morpholin-4-ylpyrimidin-4-yl)oxybenzonitrile], for which the IC50 is 10 to 1000 nM.

For the compound `Cn1nc(-c2ccccc2)cc1Oc1cc(C#N)ccc1-c1nnc(CN)s1` [compound 583, 4-[5-(aminomethyl)-1,3,4-thiadiazol-2-yl]-3-(2-methyl-5-phenylpyrazol-3-yl)oxybenzonitrile], the IC50 was over 1000 nM.

Regarding `Cc1nn(CC(F)(F)F)cc1Oc1cc(C#N)ccc1-c1ncc(CCN)cn1` [compound 834, 4-[5-(2-aminoethyl)pyrimidin-2-yl]-3-[3-methyl-1-(2,2,2-trifluoroethyl)pyrazol-4-yl]oxybenzonitrile], the IC50 is under 10 nM.

In the case of `Cn1nc(-c2ccccc2)cc1Oc1cc(C#N)ccc1-n1cc(C(O)CN)cn1` (stereo not drawn) [Compound 204, 4-[4-(2-amino-1-hydroxyethyl)pyrazol-1-yl]-3-(2-methyl-5-phenylpyrazol-3-yl)oxybenzonitrile], the IC50 was under 10 nM.

Regarding `CNc1cc(C(=O)c2cc(C#N)ccc2-c2ccc(CCN)cn2)n(C)n1` [compound 1075, 4-[5-(2-aminoethyl)pyridin-2-yl]-3-[2-methyl-5-(methylamino)pyrazole-3-carbonyl]benzonitrile], the IC50 is under 10 nM.

For `N#Cc1ccc(-c2ccc(CCN)cn2)c(Cn2cnc(-c3cccc(F)c3)c2)c1` [compound 1149, 4-[5-(2-aminoethyl)pyridin-2-yl]-3-[[4-(3-fluorophenyl)imidazol-1-yl]methyl]benzonitrile], the IC50 is under 10 nM.

Consider `N#Cc1ccc(-c2ccc(CCN)cc2)c(C(=O)c2cnnc(N3CCOCC3)c2)c1` [compound 1079, 4-[4-(2-aminoethyl)phenyl]-3-(6-morpholin-4-ylpyridazine-4-carbonyl)benzonitrile], for which the IC50 was under 10 nM.

`CCN(C)c1cc(Oc2cc(C#N)ccc2-c2ncc(CN)cn2)nc(C)n1` [compound 790, 4-[5-(aminomethyl)pyrimidin-2-yl]-3-[6-[ethyl(methyl)amino]-2-methylpyrimidin-4-yl]oxybenzonitrile]: the IC50 was 10 to 1000 nM.

With `Cc1cc(Oc2cc(C#N)ccc2-c2ncc(CC(C)(C)N)cn2)cc(N2CCOCC2)n1` [compound 476, 4-[5-(2-amino-2-methylpropyl)pyrimidin-2-yl]-3-(2-methyl-6-morpholin-4-ylpyridin-4-yl)oxybenzonitrile], the IC50 is 10 to 1000 nM.

As to `Cc1nc(Oc2cc(C#N)ccc2-n2cc([C@H](O)CN)cn2)cc(-c2cccc(C(F)(F)F)c2)n1` [compound 357, 4-[4-[(1S)-2-amino-1-hydroxyethyl]pyrazol-1-yl]-3-[2-methyl-6-[3-(trifluoromethyl)phenyl]pyrimidin-4-yl]oxybenzonitrile], the IC50 is 10 to 1000 nM.

Turning to `CCN(CC)c1cc(C(=O)c2cc(C#N)ccc2-c2ncc(CN)cn2)n(C)n1` [compound 1061, 4-[5-(aminomethyl)pyrimidin-2-yl]-3-[5-(diethylamino)-2-methylpyrazole-3-carbonyl]benzonitrile], the IC50 is under 10 nM.

On to `Cc1ccc(-c2cc(Oc3cc(C#N)ccc3-c3ccc(CCN)nc3)nc(C)n2)nc1` [Compound 189, 4-[6-(2-aminoethyl)pyridin-3-yl]-3-[2-methyl-6-(5-methylpyridin-2-yl)pyrimidin-4-yl]oxybenzonitrile], for which the IC50 was over 1000 nM.

As to `Cc1nc(Oc2cc(C#N)ccc2-c2ccc(CCN)cc2)cc(N2CC(F)(F)C(F)(F)C2)n1` [Compound 26, 4-[4-(2-aminoethyl)phenyl]-3-[2-methyl-6-(3,3,4,4-tetrafluoropyrrolidin-1-yl)pyrimidin-4-yl]oxybenzonitrile], the IC50 was under 10 nM.

As to `Cc1nc(Oc2cc(C#N)ccc2-n2cc(C(O)CN)cn2)cc(-c2cccc(Cl)c2)n1` (stereo not drawn) [Compound 159, 4-[4-(2-amino-1-hydroxyethyl)pyrazol-1-yl]-3-[6-(3-chlorophenyl)-2-methylpyrimidin-4-yl]oxybenzonitrile], the IC50 was under 10 nM.

On to `Cc1nc(Oc2cc(C#N)ccc2-c2ccc(CCN)cn2)cc(N2CCN(S(C)(=O)=O)CC2)n1` [compound 654, 4-[5-(2-aminoethyl)pyridin-2-yl]-3-[2-methyl-6-(4-methylsulfonylpiperazin-1-yl)pyrimidin-4-yl]oxybenzonitrile], for which the IC50 is over 1000 nM.

In the case of `Cn1nc(N2CCOCC2)cc1Oc1cc(F)ccc1-c1ncc(CCN)cn1` [compound 973, 2-[2-[4-fluoro-2-(2-methyl-5-morpholin-4-ylpyrazol-3-yl)oxyphenyl]pyrimidin-5-yl]ethanamine], the IC50 is 10 to 1000 nM.

With `CCCN(C)c1cc(Oc2cc(C#N)ccc2-c2ncc(CCN)cn2)n(C)n1` [compound 770, 4-[5-(2-aminoethyl)pyrimidin-2-yl]-3-[2-methyl-5-[methyl(propyl)amino]pyrazol-3-yl]oxybenzonitrile], the IC50 is under 10 nM.

On to `Cn1nc(C2CC2)cc1Oc1cc(C#N)ccc1-c1ccc(CN)nn1` [compound 870, 4-[6-(aminomethyl)pyridazin-3-yl]-3-(5-cyclopropyl-2-methylpyrazol-3-yl)oxybenzonitrile], for which the IC50 was 10 to 1000 nM.
